From patent US11084808B2, “Oxopicolinamide derivative, preparation method therefor and pharmaceutical use thereof” (Jiangsu Hengrui Medicine Co., Ltd., priority 2016, dated 2021) come the findings set out here.

SMILES strings stand for the structures.

Tested on in one data set: not listed separately
Nature of the data set: Pharmacokinetics assay in rats after intragastrical administration. It is filed as in vivo, Sprague-Dawley (SD) rats. As to conditions: intragastric, 2 mg/kg. The text has this: Test Example 3. Pharmacokinetics Assay of the Compounds of the Present Invention
Rats were used as test animals. […] The pharmacokinetic behavior of the compounds of the present invention was studied and evaluated in rats.
56 healthy adult Sprague-Dawley (SD) rats, half male and half female, were purchased from SINO-BRITSH SIPPR/BK LAB. ANIMAL LTD., CO, with License No.: SCXK (Shanghai) 2008-0016.
2.3 Preparation of the Test Compounds
A certain amount of the test compound was weighed, and added with 5% by volume of DMSO, 5% by volume of Tween 80 and 90% normal saline to prepare a 0.2 mg/mL colorless, clear and transparent solution.
After an overnight fast, SD rats were intragastrically administered at a dose of 2.0 mg/kg and an administration volume of 10.0 mL/kg.
Example 111, Example 114, Example 160. Example 171 and Comparative Example 1. Blood (0.2 mL) was taken from the orbital sinus before administration and at 0.5, 1.0, 2.0, 4.0, 6.0, 8.0, 11.0 and 24.0 hours after administration. […]
The content of the test compound in the plasma of rats after intragastric administration of different concentrations of the drug was determined: 25 μL of rat plasma at each time after administration was taken and added with 30 μL (100 ng/mL) of the internal standard solution of camptothecin and 200 μL of acetonitrile, shaken vertically for 5 minutes, and centrifuged for 10 minutes (4000 rpm). […]
With `COc1cn([C@@H](Cc2cccnc2)C(=O)Nc2ccc(C(=O)O)cc2)c(=O)cc1-c1cc(Cl)ccc1C(C)=O` [Example 84, (S)-4-(2-(4-(2-acetyl-5-chlorophenyl)-5-methoxy-2-oxopyridin-1(2H)-yl)-3-(pyridin-3-yl)propanamido)benzoic acid], the “AUC difference versus Comparative Example 1” value stood at 7.5 times and the “Cmax difference versus Comparative Example 1” value came out at 6.9 times.

The next data set concerns human blood. The data set can be described thus: In vitro anticoagulant effect on human blood (APTT, CT2). Format: biochemical. The note with it: Table 2; concentration of the compound corresponding to 2 times the APTT of the blank control; human plasma. As to the method:
Test Example 2: Determination of In Vitro Anticoagulant Effect of the Compounds of the Present Invention on Human Blood
1. Experimental Materials
Plasma: Human blood was collected in blood collection tubes containing no anticoagulant, and then 3.8% sodium citrate (volume ratio 1:9) was added. The tubes were centrifuged at 2500 rpm for 10 minutes at room temperature, and then the plasma was collected and stored at −80° C.:
Reagents: APTT reagent (Activated partial thromboplastin time assay kit, SIEMENS, Art. No. B4218-1), calcium chloride solution;
Instrument: Coagulation instrument (SYSMEX, CA-500).
The divided plasma was melted at room temperature and mixed well. 10000 μM the test compound dissolved in 100% DMSO was diluted to 3000, 300, 200, 150, 75, 30, 10, 3, 0.3 μM with 100% DMSO, and the blank was 100% DMSO. The reagent, plasma, and compound were placed in corresponding positions in the coagulation instrument, and APTT detection of the compound was carried out.
Curve fitting was carried out by graphpad and CT2 was calculated, i.e., the concentration of the compound corresponding to 2 times the APTT of the blank control.
`[2H]C([2H])([2H])C(=O)c1ccc(Cl)cc1-c1cc(=O)n([C@H](Cc2ccccc2)C(=O)Nc2ccc(C(=O)O)cc2)cc1OC` [Example 184, 4-[[(2R)-2-[4-[5-chloro-2-(2,2,2-trideuteroacetyl)phenyl]-5-methoxy-2-oxo-1-pyridyl]-3-phenyl-propionyl]amino]benzoic acid]: the “CT2 (compound concentration doubling APTT)” value was >10000 µM.

On to `COc1cn([C@@H](Cc2ccccn2)C(=O)Nc2ccc(C(N)=O)cc2)c(=O)cc1-c1cc(Cl)ccc1C(C)=O` [Example 85, (S)-4-(2-(4-(2-acetyl-5-chlorophenyl)-5-methoxy-2-oxopyridin-1(2H)-yl)-3-(pyridin-2-yl)propanamido)benzamide], for which the “CT2 (compound concentration doubling APTT)” value came out at 6.5 µM.

Take `[2H]C([2H])([2H])Oc1cn([C@H](Cc2ccccc2)C(=O)Nc2ccc(C(=O)O)cc2)c(=O)cc1-c1cc(Cl)ccc1C(C)=O` [Example 180, 4-[[(2R)-2-[4-(2-acetyl-5-chloro-phenyl)-2-oxo-5-(trideuteromethoxy)-1-pyridyl]-3-phenyl-propionyl]amino]benzoic acid]: the “CT2 (compound concentration doubling APTT)” value is >10000 µM.

As to `COc1cn(C(Cc2ccn(C)n2)C(=O)Nc2ccc(C(=O)O)cc2)c(=O)cc1-c1cc(Cl)ccc1C(C)=O` (centres unmarked) [Example 100, 4-(2-(4-(2-acetyl-5-chlorophenyl)-5-methoxy-2-oxopyridin-(2H)-yl)-3-(1-methyl-1H-pyrazol-3-yl)propanamido)benzoic acid], the “CT2 (compound concentration doubling APTT)” value worked out at 3.3 µM.

Regarding `[2H]C([2H])([2H])Oc1cn([C@H](CCOC(C)(C)C)C(=O)Nc2ccc(C(=O)O)cc2)c(=O)cc1-c1cc(Cl)ccc1C(=O)CC` [Example 178, 4-[[(2R)-4-tert-butoxy-2-[4-(5-chloro-2-propionyl-phenyl)-2-oxo-5-(trideuteromethoxy)-1-pyridyl]butyryl]amino]benzoic acid], the “CT2 (compound concentration doubling APTT)” value was >10000 µM.

For the molecule `[2H]C([2H])([2H])C(=O)c1ccc(Cl)cc1-c1cc(=O)n([C@@H](Cc2ccccc2)C(=O)Nc2ccc(C(=O)O)cc2)cc1OC` [Example 183, 4-[[(2S)-2-[4-[5-chloro-2-(2,2,2-trideuteroacetyl)phenyl]-5-methoxy-2-oxo-1-pyridyl]-3-phenyl-propionyl]amino]benzoic acid], the “CT2 (compound concentration doubling APTT)” value came out at 2.6 µM.

Turning to `COc1cn(C(Cc2ccn(C3CC3)n2)C(=O)Nc2ccc(C(=O)O)cc2)c(=O)cc1-c1cc(Cl)ccc1C(C)=O` (centres unmarked) [Example 93, 4-(2-(4-(2-acetyl-5-chlorophenyl)-5-methoxy-2-oxopyridin-1(2H)-yl)-3-(1-cyclopropyl-1H-pyrazol-3-yl)propanamido)benzoic acid], the “CT2 (compound concentration doubling APTT)” value came out at 2.9 µM.

For the molecule `CCC(=O)c1ccc(Cl)cc1-c1cc(=O)n(C(Cc2ccccc2)C(=O)Nc2ccc(C(=O)O)cc2)cc1OC` (centres unmarked) [Example 8, 4-(2-(4-(5-chloro-2-propionylphenyl)-5-methoxy-2-oxopyridin-1(2H)-yl)-3-phenylpropanamido)benzoic acid], the “CT2 (compound concentration doubling APTT)” value came to 6.4 µM.

Take `COc1cn(C(Cc2ccn(C3CC3)n2)C(=O)Nc2ccc3nn(C)cc3c2)c(=O)cc1-c1cc(Cl)ccc1C(C)=O` (centres unmarked) [Example 97, 2-(4-(2-acetyl-5-chlorophenyl)-5-methoxy-2-oxopyridin-(2H)-yl)-3-(1-cyclopropyl-1H-pyrazol-3-yl)-N-(2-methyl-2H-indazol-5-yl)propanamide]: the “CT2 (compound concentration doubling APTT)” value stood at 5.4 µM.

With `COc1cn([C@@H](Cc2ccccc2)C(=O)Nc2ccc(C(N)=O)cc2)c(=O)cc1-c1cc(Cl)ccc1C(C)=O` [Example 11, (S)-4-(2-(4-(2-acetyl-5-chlorophenyl)-5-methoxy-2-oxopyridin-1(2H)-yl)-3-phenylpropanamido)benzamide], the “CT2 (compound concentration doubling APTT)” value worked out at 4.2 µM.

`COc1cn([C@H](Cc2cnn(C)c2)C(=O)Nc2ccc(C(=O)O)cc2)c(=O)cc1-c1cc(Cl)ccc1C(C)=O` [Example 104, (R)-4-(2-(4-(2-acetyl-5-chlorophenyl)-5-methoxy-2-oxopyridin-1(2H)-yl)-3-(1-methyl-1H-pyrazol-4-yl)propanamido)benzoic acid]: the “CT2 (compound concentration doubling APTT)” value is >10000 µM.

In the case of `COc1cn(C(Cc2ccn(C3CC3)n2)C(=O)Nc2ccc3ncncc3c2)c(=O)cc1-c1cc(Cl)ccc1C(C)=O` (centres unmarked) [Example 98, 2-(4-(2-acetyl-5-chlorophenyl)-5-methoxy-2-oxopyridin-1(2H)-yl)-3-(1-cyclopropyl-1H-pyrazol-3-yl)-N-(quinazolin-6-yl)propanamide], the “CT2 (compound concentration doubling APTT)” value amounted to 7.6 µM.

On to `COc1cn(C(Cc2ccccc2)C(=O)Nc2ccc(C(=O)O)cc2)c(=O)cc1-c1cc(Cl)ccc1C(=O)CC1CC1` (centres unmarked) [Example 39, 4-(2-(4-(5-chloro-2-(2-cyclopropylacetyl)phenyl)-5-methoxy-2-oxopyridin-1(2H)-yl)-3-phenylpropanamido)benzoic acid], for which the “CT2 (compound concentration doubling APTT)” value came to 8.3 µM.

With `COc1cn([C@@H](CCOC(C)(C)C)C(=O)Nc2ccc(C(=O)O)cc2)c(=O)cc1-c1cc(Cl)ccc1C(C)=O` [Example 111, (S)-4-(2-(4-(2-acetyl-5-chlorophenyl)-5-methoxy-2-oxopyridin-1(2H)-yl)-4-(tert-butoxy)butanamido)benzoic acid], the “CT2 (compound concentration doubling APTT)” value came to 3.2 µM.

Regarding `CCC(=O)c1ccc(Cl)cc1-c1cc(=O)n([C@@H](CCOC(C)(C)C)C(=O)Nc2ccc3nccnc3c2)cc1OC` [Example 114, (S)-4-(tert-butoxy)-2-(4-(5-chloro-2-propionylphenyl)-5-methoxy-2-oxopyridin-1(2H)-yl)-N-(quinoxalin-6-yl)butanamide], the “CT2 (compound concentration doubling APTT)” value was determined as 3.6 µM.

Take `COCC[C@@H](C(=O)Nc1ccc2[nH]c(C(=O)O)cc2c1)n1cc(OC)c(-c2cc(Cl)ccc2C(C)=O)cc1=O` [Example 2, (S)-5-(2-(4-(2-acetyl-5-chlorophenyl)-5-methoxy-2-oxopyridin-1(2H)-yl)-4-methoxybutanamido)-1H-indole-2-carboxylic acid]: the “CT2 (compound concentration doubling APTT)” value was 2.9 µM.

As to `CCC(=O)c1ccc(Cl)cc1-c1cc(=O)n([C@@H](Cc2ccccc2)C(=O)Nc2ccc(C(=O)O)cc2)cc1OC` [Example 9, (S)-4-(2-(4-(5-chloro-2-propionylphenyl)-5-methoxy-2-oxopyridin-1(2H)-yl)-3-phenylpropanamido)benzoic acid], the “CT2 (compound concentration doubling APTT)” value is 2.4 µM.

For `COc1cn([C@@H](Cc2cnn(C)c2)C(=O)Nc2ccc(C(=O)O)cc2)c(=O)cc1-c1cc(Cl)ccc1C(C)=O` [Example 105, (S)-4-(2-(4-(2-acetyl-5-chlorophenyl)-5-methoxy-2-oxopyridin-1(2H)-yl)-3-(1-methyl-1H-pyrazol-4-yl)propanamido)benzoic acid], the “CT2 (compound concentration doubling APTT)” value was found to be 6.9 µM.

Still in this data set, the particulars now being: Table 3 comparison with similar compounds in the published patents; human plasma.
With `CCC(=O)c1ccc(Cl)cc1-c1cc(=O)n([C@@H](CCOC(C)(C)C)C(=O)Nc2ccc3nccnc3c2)cc1OC` [Example 114, (S)-4-(tert-butoxy)-2-(4-(5-chloro-2-propionylphenyl)-5-methoxy-2-oxopyridin-1(2H)-yl)-N-(quinoxalin-6-yl)butanamide], the “CT2 (compound concentration doubling APTT)” value was determined as 2.9 µM.

Turning to `COc1cn([C@@H](CCOC(C)(C)C)C(=O)Nc2ccc3nccnc3c2)c(=O)cc1-c1cc(Cl)ccc1-c1nc(C)no1` [Comparative Example 2, (S)-4-(tert-butoxy)-2-(4-(5-chloro-2-(3-methyl-1,2,4-oxadiazol-5-yl)phenyl)-5-methoxy-2-oxopyridin-1 (2H)-yl)-N-(quinoxalin-6-yl)butanamide, reference compound], the “CT2 (compound concentration doubling APTT)” value came out at 13.1 µM.

Staying with this data set, now noted: from Table 3.
Consider `CCC(=O)c1ccc(Cl)cc1-c1cc(=O)n([C@@H](CCOC(C)(C)C)C(=O)Nc2ccc3nccnc3c2)cc1OC` [Example 114, (S)-4-(tert-butoxy)-2-(4-(5-chloro-2-propionylphenyl)-5-methoxy-2-oxopyridin-1(2H)-yl)-N-(quinoxalin-6-yl)butanamide], for which the “CT2 value ratio of Example 114 and comparative Example 2” value came to 4.5 times.
